Assay results taken from ChEMBL document CHEMBL5241073, “Pharmacological Targeting of Executioner Proteins: Controlling Life and Death” (J Med Chem, 2021).
pIC50: −log10 of the molar value.

Target: Apoptosis regulator BAX (Homo sapiens, UniProt Q07812)
Experiment: Inhibition of recombinant human BAX expressed in Escherichia coli BL21 (DE3) assessed as inhibition of liposome permeabilization and measured for 2 hrs by fluorescence analysis

Chain of Apoptosis regulator BAX (Q07812 whole entry): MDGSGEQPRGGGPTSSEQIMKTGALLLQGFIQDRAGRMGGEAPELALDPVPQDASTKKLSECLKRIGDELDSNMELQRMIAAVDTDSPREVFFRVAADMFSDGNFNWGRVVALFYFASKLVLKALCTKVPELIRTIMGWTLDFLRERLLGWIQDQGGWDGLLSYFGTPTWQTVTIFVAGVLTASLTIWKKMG

## COCCOCOc1ccc2c(c1)O[C@H](CN)[C@H]2N(Cc1ccc(Br)cc1)C(=O)[C@H](Cc1ccccc1)NC(=O)c1ccccc1
  pIC50: 5.22

## COCCOCOc1ccc2c(c1)O[C@H](CN(Cc1ccc(Br)cc1)C(=O)[C@H](Cc1ccccc1)NC(=O)c1ccccc1)[C@H]2N
  pIC50: 5.40
